Entries after “also recorded” stand apart in the source; their conditions may differ. Read-outs that look alike come from different tables or passages of the source.
Experiments:
[1] = system: AML progressed on standard therapy / advanced hematologic malignancies; settings: single agent, cited from earlier work
newly diagnosed AML = settings: cited from earlier work
[2] = system: first relapse or primary refractory AML; settings: cited from earlier work
AML = settings: panobinostat 30 mg combined with azacitidine; cited from earlier work
BRCA1, CHK1, and RAD51 = settings: AML cell lines; cited from earlier work
[3] = system: AML cell lines and primary AML cells from patients; settings: combination with doxorubicin; cited from earlier work
[4] = elderly patients (> 65 years), with idarubicin and ara-C

In the case of Cc1[nH]c2ccccc2c1CCNCc1ccc(/C=C/C(=O)NO)cc1 [panobinostat], the “Discontinuation, primary reason death” value (All patients, n=46) is reported as 5 (10.9) n (%), the “Discontinuation, primary reason death” value (PAN 15 mg, n=11) is reported as 1 (9.1) n (%) and the “Discontinuation, primary reason death” value (PAN 20 mg (dose expansion), n=12) is reported as 3 (25) n (%). For the same compound, the “SAE: infections” value (all dose groups) was 5 patients, the “On-treatment deaths during the induction phase” value (all in the 20 mg expansion dose group) was 6.5% and the “Deaths during the study period or within 28 days after the end of treatment” value (all patients) was 6 deaths. For the same compound, the “Deaths in the induction phase” value (all patients) was 3 deaths, the “Deaths overall (induction and consolidation)” value (all patients) was 5 deaths and the “Abdominal pain, Any grade” value (human, in vivo) was 3 (6.5) n (%). For the same compound, the “Abdominal pain, Grade 3 or 4” value (human, in vivo) was 0 (0.0) n (%), the All-grade cardiac events (human, in vivo) was 6.5% and the “Alopecia, Any grade” value (human, in vivo) was 3 (6.5) n (%). The “Alopecia, Grade 3 or 4” value (human, in vivo) was 0 (0.0) n (%), the “Anemia, Any grade” value (human, in vivo) was 17 (37.0) n (%) and the “Anemia, Grade 3 or 4” value (human, in vivo) was 15 (32.6) n (%). The “Anemia, all-grade” value (human, in vivo) was 37%, the “Decreased appetite, Any grade” value (human, in vivo) was 10 (21.7) n (%) and the “Decreased appetite, Grade 3 or 4” value (human, in vivo) was 1 (2.2) n (%). For the same compound, the “Decreased appetite, all-grade” value (human, in vivo) was 21.7%, the “Diarrhea, Any grade” value (human, in vivo) was 25 (54.3) n (%) and the “Diarrhea, Grade 3 or 4” value (human, in vivo) was 3 (6.5) n (%). The “Discontinuation, primary reason adverse events” value (human, in vivo) was 8 (17.4) n (%), the “Discontinued due to AEs” value (human, in vivo) was 15.8% and the “Dyspepsia, Any grade” value (human, in vivo) was 2 (4.3) n (%). For the same compound, the “Dyspepsia, Grade 3 or 4” value (human, in vivo) was 0 (0.0) n (%), the “Fatigue, Any grade” value (human, in vivo) was 8 (17.4) n (%) and the “Fatigue, Grade 3 or 4” value (human, in vivo) was 1 (2.2) n (%). The “Fatigue, all-grade” value (human, in vivo) was 17.4%, the “Febrile neutropenia, Any grade” value (human, in vivo) was 17 (37.0) n (%) and the “Febrile neutropenia, Grade 3 or 4” value (human, in vivo) was 16 (34.8) n (%). For the same compound, the “Febrile neutropenia, all-grade” value (human, in vivo) was 37%, the “Grade 3 or 4 AEs suspected to be treatment-related” value (human, in vivo) was 73.9% and the “Hypokalemia, Any grade” value (human, in vivo) was 7 (15.2) n (%). For the same compound, the “Hypokalemia, Grade 3 or 4” value (human, in vivo) was 3 (6.5) n (%), the “Left ventricular dysfunction, Any grade” value (human, in vivo) was 3 (6.5) n (%) and the “Left ventricular dysfunction, Grade 3 or 4” value (human, in vivo) was 2 (4.3) n (%). For the same compound, the “Leukopenia, Any grade” value (human, in vivo) was 2 (4.3) n (%), the “Leukopenia, Grade 3 or 4” value (human, in vivo) was 2 (4.3) n (%) and the “Leukopenia, all-grade” value (human, in vivo) was 4.3%. The “Nausea, Any grade” value (human, in vivo) was 18 (39.1) n (%), the “Nausea, Grade 3 or 4” value (human, in vivo) was 0 (0.0) n (%) and the “Neutropenia, Any grade” value (human, in vivo) was 9 (19.6) n (%). The “Neutropenia, Grade 3 or 4” value (human, in vivo) was 9 (19.6) n (%), the “Neutropenia, all-grade” value (human, in vivo) was 19.6% and the “Patients with AEs” value (human, in vivo) was 84.8%. The “Pyrexia, Any grade” value (human, in vivo) was 6 (13.0) n (%), the “Pyrexia, Grade 3 or 4” value (human, in vivo) was 0 (0.0) n (%) and the “SAE: cardiac disorders” value (human, in vivo) was 5 patients. For the same compound, the “SAE: grade ≥ 3 febrile neutropenia” value (human, in vivo) was 10 patients, the “Stomatitis, Any grade” value (human, in vivo) was 9 (19.6) n (%) and the “Stomatitis, Grade 3 or 4” value (human, in vivo) was 0 (0.0) n (%). For the same compound, the “Stomatitis, all-grade” value (human, in vivo) was 19.6%, the “Thrombocytopenia, Any grade” value (human, in vivo) was 21 (45.7) n (%) and the “Thrombocytopenia, Grade 3 or 4” value (human, in vivo) was 21 (45.7) n (%). For the same compound, the “Thrombocytopenia, all-grade” value (human, in vivo) was 45.7%, the “Treatment discontinuation due to AEs” value (human, in vivo) was 17.4% and the “Vomiting, Any grade” value (human, in vivo) was 10 (21.7) n (%). For the same compound, the “Vomiting, Grade 3 or 4” value (human, in vivo) was 0 (0.0) n (%), the “Vomiting, all-grade” value (human, in vivo) was 21.7% and the “Complete remission (CR)” value ([1]; of 86 patients, 60-mg dose) was 2 patients. For the same compound, the “MTD of panobinostat alone” value [1] was 60 mg, the CR rate (newly diagnosed AML; [4]) was 64% and the “Median time to relapse” value (newly diagnosed AML; [4]) was 17.0 months. The MTD of panobinostat (newly diagnosed AML; with 8 mg/m^2 idarubicin (day 1–3) and 100 mg/m^2 ara-C (day 1–7), elderly) was 10 mg, the DLTs ([2]; first 2 cohorts, 20 mg and 30 mg thrice weekly) was “no DLTs occurred” and the CR/CRi rate ([2]; plus ara-C and mitoxantrone) was 46%. The RP2D of panobinostat ([2]; with mitoxantrone and ara-C as salvage therapy) was 50 mg, the “Grade ≥ 3 AEs” value (AML) was 97% and the “Expression of BRCA1, CHK1, and RAD51” value (BRCA1, CHK1, and RAD51) was “decreases the levels of key proteins BRCA1, CHK1, and RAD51; also recorded: reduce the expression of BRCA1, CHK1, and RAD51”. For the same compound, the “Cell death (caspase-dependent apoptosis)” value [3] was “induces cell death”.

Source: PMC7108400 (Leukemia research, 2019)
